This assay deals with interaction of human SOS1 (SOS1) with human K-RasG12C (Homo sapiens (Human), UniProt Q07889). The assay can be described thus: Biochemical assay: hK-RasG12C interaction assay with hSOS1 (HTRF). Type of assay: binding. As to conditions: GST-hK-RasG12C with His-hSOS1, 60 min incubation at 20° C., mean, read-out: K-RasG12C - SOS interaction assay IC50 (mean). In outline:
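Compounds, duplicates at 11 concentrations from 0.073 nM to 20 µM, were preincubated 2 min with 10 nM GST-hK-RasG12C, then 20 nM His-hSOS1 was added, all at 20 °C. After 60 min, 665/620 nm HTRF ratio normalized to DMSO and SOS1-free controls; IC50 by 4-parameter fit.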
For orientation: In TR-FRET formats the signal depends on donor and acceptor labels being close together.
interaction of human SOS1 (SOS1) with human K-RasG12C, sequence (Q07889 564-1049 limits assumed): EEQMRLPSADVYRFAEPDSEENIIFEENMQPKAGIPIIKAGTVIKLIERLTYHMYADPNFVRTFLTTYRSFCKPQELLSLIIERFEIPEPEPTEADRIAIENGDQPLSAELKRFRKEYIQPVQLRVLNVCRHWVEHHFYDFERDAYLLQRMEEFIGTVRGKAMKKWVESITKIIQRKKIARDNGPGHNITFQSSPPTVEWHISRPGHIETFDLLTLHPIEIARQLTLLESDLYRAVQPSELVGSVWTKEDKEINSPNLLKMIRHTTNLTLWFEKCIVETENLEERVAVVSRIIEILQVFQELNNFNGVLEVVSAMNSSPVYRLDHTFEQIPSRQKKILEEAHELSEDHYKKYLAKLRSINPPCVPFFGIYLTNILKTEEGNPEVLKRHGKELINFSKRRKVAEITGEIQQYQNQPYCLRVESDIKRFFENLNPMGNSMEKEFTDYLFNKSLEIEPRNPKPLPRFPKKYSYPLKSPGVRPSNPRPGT
Consider `CC(=O)N1CCP(=O)(c2cc3c(N[C@H](C)c4cccc(C(F)(F)CN(C(C)=O)C5CC5)c4F)nc(C)nc3cn2)CC1` [Example 202], for which the IC50 – broadly, the concentration that inhibits the measured activity by half – is 3.89 nM.

Turning to `Cc1nc(N[C@H](C)c2cccc(C(F)(F)F)c2C)c2cc(P3(=O)CCN(C(=O)C(F)F)CC3)ncc2n1` [Example 203], the IC50 was determined as 5.65 nM.

Consider `Cc1nc(N[C@H](C)c2cccc(C(F)(F)F)c2Cl)c2cc(P3(=O)CCN(C(=O)C(F)F)CC3)ncc2n1` [Example 204], for which the IC50 amounted to 5.96 nM.

As to `Cc1nc(N[C@H](C)c2cccc(C(F)(F)F)c2)c2cc(P3(=O)CCN(C(=O)C(F)F)CC3)ncc2n1` [Example 205], the IC50 was determined as 9.64 nM.

Consider `Cc1nc(N[C@H](C)c2cccc(C(F)F)c2F)c2cc(P3(=O)CCN(C(=O)C(F)F)CC3)ncc2n1` [Example 206], for which the IC50 came to 3.77 nM.

In the case of `Cc1nc(N[C@H](C)c2cccc(C(F)(F)F)c2C)c2cc(P3(=O)CCN(C(=O)C(F)F)CC3)ccc2n1` [Example 207], the IC50 turned out to be 6.84 nM.

(Values after patent publication US20240247015A1, “PHOSPHORUS DERIVATIVES AS NOVEL SOS1 INHIBITORS” (BAYER AKTIENGESELLSCHAFT, priority 2021, published 2024).)
